Measurements taken from PubChem BioAssay (NCI).
Where “and” joins values, the source holds several entries; their conditions need not be identical. Equal entries are not always repeated.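 Each compound was tested at five concentrations against cells in 96-well plates for 48 hours. GI50: concentration for 50% inhibition of growth. TGI: concentration producing complete growth inhibition.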

Assays:
Assay in all cases: inhibition of tumour cell growth, NCI panel, 48 h
NCI-H226 lung = tested on: NCI-H226 lung
U251 CNS = tested on: U251 CNS
TK-10 renal = tested on: TK-10 renal
HCT-15 colon = tested on: HCT-15 colon
ACHN renal = tested on: ACHN renal
SK-OV-3 ovarian = tested on: SK-OV-3 ovarian
UACC-257 melanoma = tested on: UACC-257 melanoma
OVCAR-8 ovarian = tested on: OVCAR-8 ovarian
SK-MEL-2 melanoma = tested on: SK-MEL-2 melanoma
T-47D breast = tested on: T-47D breast

Row | Structure (SMILES) | TGI (NCI-H226 lung) | TGI (U251 CNS) | TGI (TK-10 renal) | TGI (HCT-15 colon) | TGI (ACHN renal) | TGI (SK-OV-3 ovarian) | TGI (UACC-257 melanoma) | TGI (OVCAR-8 ovarian) | TGI (SK-MEL-2 melanoma) | GI50 (U251 CNS) | GI50 (TK-10 renal) | GI50 (HCT-15 colon) | GI50 (T-47D breast) | TGI (T-47D breast) | GI50 (SK-OV-3 ovarian) | GI50 (UACC-257 melanoma) | GI50 (OVCAR-8 ovarian) | GI50 (SK-MEL-2 melanoma) | GI50 (NCI-H226 lung) | GI50 (ACHN renal)
1 | Cc1[nH]c(=O)nc(CC(O)(c2ccccc2)c2ccccc2)c1-c1ccccc1 | > 100 µM | > 100 µM | > 100 µM | > 100 µM | > 100 µM | > 100 µM | > 100 µM | > 100 µM | > 100 µM |  |  |  |  |  |  |  |  |  |  | 
2 | CC(C)=CCC/C(C)=C/CC/C(=C/COP(=O)(OCc1ccc([N+](=O)[O-])o1)N(C)CCCCCl)CC=C(C)C (stereo unspecified) |  | 11.8 µM | 30.8 µM | 12.5 µM |  | 55.8 µM | 22.5 µM | 13.5 µM | 14.1 µM | 2.78 µM | 14.6 µM | 2.65 µM | 38 µM | > 100 µM | 18.2 µM | 6.57 µM | 3.04 µM | 3.09 µM |  | 
3 | N#CCC(=O)N/N=C1/C(=O)NC(=O)C(=O)C1c1nc2ccccc2s1 (stereo unspecified) | > 100 µM | > 100 µM | > 100 µM | > 100 µM | > 100 µM | > 100 µM | > 100 µM | > 100 µM | > 100 µM |  |  |  |  |  |  |  |  |  |  | 
4 | CC(F)(F)c1cc(F)ccc1-c1sc2cc(O)ccc2c1Oc1ccc(/C=C/C(=O)O)cc1 | 25 µM | 23 µM | > 100 µM | 18.2 µM | 45.5 µM |  | 57.5 µM | 69.1 µM | 20.8 µM | 6.45 µM | 22 µM | 4.13 µM | 7.1 µM | 50 µM |  | 14.2 µM | 12.2 µM | 4.43 µM | 5.78 µM | 10.3 µM
5 | COc1cc(-c2nc(SCC(=O)Nc3ccc(C(C)=O)cc3)[nH]c(=O)c2C#N)cc(OC)c1OC | > 100 µM | > 100 µM | > 100 µM | > 100 µM | > 100 µM | > 100 µM | > 100 µM | > 100 µM |  | 55.6 µM | 96.9 µM | > 100 µM | 34 µM | > 100 µM | 38.6 µM | 97.4 µM | 73.7 µM |  | 89.8 µM | 85 µM
6 | C=CC[Se]C(=O)Cc1c(C)n(C(=O)c2ccc(Cl)cc2)c2ccc(OC)cc12 |  | 2.73 µM | 3.19 µM | 3.87 µM | 3.25 µM | 3.1 µM | 4.64 µM | 3.68 µM | 4.14 µM | 1.1 µM | 1.75 µM | 1.84 µM | 2.29 µM | 5.7 µM | 1.63 µM | 2.02 µM | 1.84 µM | 1.94 µM |  | 1.79 µM
7 | CCOC(=O)c1c(C)n(CC(C)C)c2c1cc1oc(=O)c(=O)n3cnc2c13 | 29.2 µM | 24.1 µM | 47.6 µM | > 50 µM | 24.1 µM | > 50 µM | 30.5 µM | 36.7 µM | > 50 µM | 10 µM | 13.3 µM | 15.2 µM |  |  | 20.4 µM | 11.3 µM | 12.5 µM | 38.7 µM | 9.63 µM | 9.34 µM
8 | O=C(N=Nc1c(O)[nH]c2c(Cl)cc(Cl)cc12)c1ccncc1 | > 100 µM | 41.6 µM | > 100 µM | > 100 µM | > 100 µM | 69.8 µM | 48.9 µM | 67.8 µM | 40.2 µM |  |  |  |  |  |  |  |  |  |  | 
9 | COc1cc(OC)c(OC)cc1/C=C1\C=Cc2ccccc21 | > 100 µM | > 100 µM | 80 µM | 61.4 µM | > 100 µM | 59.8 µM | 37.7 µM | > 100 µM |  |  |  |  |  | > 100 µM |  |  |  |  |  | 
10 | CCCC(=O)NC(c1ccc2c(c1)OCO2)c1ccc2cccnc2c1O (stereo unspecified) | 8.63 µM | > 100 µM | > 100 µM | 24.6 µM | > 100 µM | 29.7 µM |  | > 100 µM | > 100 µM | 1.15 µM | 2.97 µM | 0.394 µM | 2.24 µM | > 100 µM | 1.89 µM |  | 1.48 µM | 4.99 µM | 2.21 µM | 0.466 µM
11 | NC1=NC2(O)c3ccccc3C(=O)C2(O)N1 (stereo unspecified) | > 100 µM | > 100 µM | > 100 µM | > 100 µM | > 100 µM | > 100 µM | > 100 µM | > 100 µM | > 100 µM |  |  |  |  |  |  |  |  |  |  | 
12 | COC1(OC)CC2C(=O)N(Cc3ccccc3)C1CC2S(=O)(=O)c1ccccc1 (stereo unspecified) | > 100 µM | > 100 µM | > 100 µM | > 100 µM | > 100 µM | > 100 µM | > 100 µM | > 100 µM | > 100 µM |  |  |  |  |  |  |  |  |  |  | 
13 | COc1ccc2[nH]c(-c3cccc(N(C)C)c3)cc(=O)c2c1 |  |  | > 100 µM |  | > 100 µM | 59.2 µM | > 100 µM | 2.48 µM and 5.56 µM |  | 0.463 µM | 19.8 µM | 0.374 µM |  |  | 0.573 µM | 0.361 µM | 0.433 µM | 0.786 µM | 0.581 µM | 
14 | COc1ccc(/C(Cl)=C(\C=O)c2ccc(Br)cc2)cc1OC | > 100 µM | > 100 µM | > 100 µM | > 100 µM | > 100 µM | > 100 µM | > 100 µM | > 100 µM | 74.4 µM |  |  |  |  |  |  |  |  |  |  | 
15 | Cc1ccc(S(=O)(=O)NC(CCC(=O)Nc2ccccc2)C(=O)Nc2ccccc2)cc1 (stereo unspecified) | 2.59 µM | 1.49 µM |  |  |  | 2.39 µM | 2.36 µM | 2.57 µM | 1.47 µM | 0.326 µM |  |  | 0.206 µM | 0.934 µM | 0.47 µM | 0.464 µM | 0.5 µM | 0.427 µM | 0.447 µM | 
16 | COc1cc2nc(-c3ccc(-n4cncc4-c4ccc(N)cc4)cc3)sc2c(OC)c1OC | 40.6 µM | 17 µM | > 100 µM |  | > 100 µM | 31.3 µM | > 100 µM | 57.8 µM |  | 3.84 µM | 4.93 µM |  | 1.59 µM | 6.71 µM | 11.7 µM | 6.4 µM | 4.23 µM |  | 4.73 µM | 8.56 µM
17 | Cc1c(C2Cc3ccccc3N2C(=O)/C=C\C(=O)O)c2ccccc2n1C (stereo unspecified) | 57.6 µM | 40.6 µM | 44.6 µM | > 100 µM | > 100 µM | 48.5 µM | 36.3 µM | 43.6 µM | 32 µM |  |  |  |  |  |  |  |  |  |  | 
